Measurements reported in patent US20070037883A1, “Therapeutic compositions” (priority 2003, published 2007).
Entries after “also recorded” stand apart in the source; their conditions may differ.

Legend:
[1] = system: angiotensin II-induced hypertension; assay: Angiotensin II-induced hypertension, arterial blood pressure; assay type: in vivo, rats
Experimental: Measurement of arterial blood pressure: Rats are briefly anaesthetized (ketamine 80 mg/kg ip plus xylazine 10 mg/kg ip) and a saline-filled cannula is inserted in a femoral artery. The cannula is connected to a pressure transducer and a chart recorder. When arterial pressure is observed to be stable (within 5 minutes) mean arterial pressure is calculated and recorded.
Angiotensin II-induced experimental hypertension: On Day 0, rats are briefly anaesthetized (ketamine 80 mg/kg ip plus xylazine 10 mg/kg ip) and an osmotic minipump containing either saline or suramin is implanted subcutaneously. The dose rate of suramin is 300 mg/kg per 14 days. On Day 7, rats are again anaesthetized and another minipump containing saline or angiotensin II is implanted subcutaneously. The dose rate of angiotensin II is 5 mg/kg per 7 days. On Day 14, each rat is again anaesthetized and a cannula was inserted into a femoral artery for measurement of blood pressure. Angiotensin II causes a large increase in mean arterial pressure (of approx. 60-80 mmHg) in control rats.
On Day 0, rats were briefly anaesthetized and an osmotic minipump containing either saline or suramin was implanted subcutaneously. The dose rate of suramin was 300 mg/kg per 14 days. On Day 7, rats were again anaesthetized and another minipump containing saline or angiotensin II was implanted subcutaneously. The dose rate of angiotensin II was 5 mg/kg per 7 days. On Day 14, each rat was again anaesthetized and a cannula was inserted into a femoral artery for measurement of blood pressure. Angiotensin II caused a large increase in blood pressure in rats pretreated with saline. In contrast, the increase in blood pressure by angiotensin II was prevented by approximately 60% in rats pretreated with suramin.

rat basilar artery = assay: Acetylcholine-induced dilator responses of the rat basilar artery in vivo after subarachnoid haemorrhage; details: suramin 300 mg/kg s.c. over 7 days, 2 days after SAH, FIG. 14
Experimental: Subarachnoid hemorrhage: On Day 0, rats are briefly anaesthetized (pentobarbital 50 mg/kg ip) and an osmotic minipump containing either saline or suramin is implanted subcutaneously. The dose rate of suramin is 300 mg/kg per 7 days. On Day 5, rats are again anaesthetized and 0.3 ml of blood is withdrawn from a femoral artery and injected into the cerebrospinal fluid around the ventral surface of the brain via the cisterna magna. In some control rats, saline is injected into the cerebrospinal fluid instead of arterial blood. The rat is allowed to recover for a further 2 days, and is then again anaesthetized on Day 7 for study.
Measurement of cerebral artery responses in vivo: Rats are anaesthetized with pentbarbital (50 mg/kg ip) and anaesthesia is maintained with supplemental pentobarbital (10-20 mg/kg per h iv). […] Basilar artery diameter is continuously measured using a computer-based image tracking device. The endothelium-dependent vasodilator acetylcholine is superfused over the basilar artery at a steady concentration of 1 micromolar for 3-5 minutes, and the increase in diameter is measured. The concentration of acetylcholine is then increased to 10, and then 100 micromolar in a similar manner and increases in diameter recorded. […] Responses to acetylcholine are then expressed as a percent of this maximum response. […]

Structure (SMILES): Cc1ccc(C(=O)Nc2ccc(S(=O)(=O)O)c3cc(S(=O)(=O)O)cc(S(=O)(=O)O)c23)cc1NC(=O)c1cccc(NC(=O)Nc2cccc(C(=O)Nc3cc(C(=O)Nc4ccc(S(=O)(=O)O)c5cc(S(=O)(=O)O)cc(S(=O)(=O)O)c45)ccc3C)c2)c1 [suramin]
- mean arterial blood pressure of control rats ([1]; suramin 150 mg/kg s.c. per week for 2 weeks, no angiotensin II, ketamine-xylazine anaesthesia, FIG. 15): no effect
- prevention of the increase in blood pressure by angiotensin II ([1]; suramin 300 mg/kg per 14 days, angiotensin II 5 mg/kg per 7 days, Day 14): approximately 60%
- increase in arterial pressure during angiotensin II administration (in words) ([1]; suramin 1 week prior to and during 1 week of angiotensin II 5 mg/kg s.c., FIG. 15): smaller increase
- response of basilar artery diameter to acetylcholine in vivo after SAH (rat basilar artery): not impaired; also recorded: prevents any significant reduction
